Data from patent US20220002309A1, “SSAO INHIBITORS AND USES THEREOF” (Metacrine, Inc., priority 2018, published 2022).

target: T1, Recombinant Human SSAO/VAP-1/AOC3 (Homo sapiens, UniProt Q16853); assay: Human Semicarbazide-Sensitive Amine Oxidase (SSAO) Assay; type: biochemical; conditions: recombinant enzyme; 30 minutes preincubation at 37° C.; benzylamine substrate; Amplex Ultra Red/HRP fluorescence
T1 construct: purchased R&D systems 3957-AO
T1 sequence (Q16853 1-763): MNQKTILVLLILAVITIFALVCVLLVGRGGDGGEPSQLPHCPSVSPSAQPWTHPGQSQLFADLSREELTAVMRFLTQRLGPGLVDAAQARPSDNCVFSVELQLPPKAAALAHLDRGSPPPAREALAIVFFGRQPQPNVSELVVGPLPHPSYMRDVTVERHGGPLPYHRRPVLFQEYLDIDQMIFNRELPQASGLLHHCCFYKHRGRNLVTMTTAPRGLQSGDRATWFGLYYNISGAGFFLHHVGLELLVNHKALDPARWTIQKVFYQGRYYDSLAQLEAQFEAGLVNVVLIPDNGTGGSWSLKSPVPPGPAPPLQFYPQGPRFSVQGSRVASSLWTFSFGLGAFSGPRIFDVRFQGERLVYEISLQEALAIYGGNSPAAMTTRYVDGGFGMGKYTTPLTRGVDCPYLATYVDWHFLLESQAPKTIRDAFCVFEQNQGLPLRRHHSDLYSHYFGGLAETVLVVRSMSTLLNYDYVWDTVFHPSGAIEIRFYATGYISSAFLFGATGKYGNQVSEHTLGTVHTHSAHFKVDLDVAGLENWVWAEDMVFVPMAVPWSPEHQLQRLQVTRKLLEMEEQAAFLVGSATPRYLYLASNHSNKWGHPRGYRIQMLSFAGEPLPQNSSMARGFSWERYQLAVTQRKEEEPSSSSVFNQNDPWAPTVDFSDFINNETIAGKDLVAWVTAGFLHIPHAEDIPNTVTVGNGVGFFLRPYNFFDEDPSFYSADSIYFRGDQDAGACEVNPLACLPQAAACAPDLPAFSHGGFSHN
Protocol: Example B-1: Human Semicarbazide-Sensitive Amine Oxidase (SSAO) Assay
Compounds were dissolved in DMSO to provide a Concentration Response Curve (CRC; at 500 times the final concentration) over a range of 6-10 dilutions.
Recombinant Human SSAO/VAP-1/AOC3 (R&D systems; Catalog #3957-AO) was used to screen compound potency in vitro, according to previously described methods (J Pharmacol Exp Ther. 2013 November; 347(2):365-74). SSAO enzyme was suspended in 50 mM HEPES buffer to a working concentration of 2.5 μg/ml and 40 μL of this enzyme mixture was then added to each well of a F16 Black Maxisorp 96 well Plate (Nunc, Catalog #475515). Ten microliters of each test compound (at 5 times the final concentration) were added to each well, resulting in a final well volume of 50 μL of the enzyme and inhibitor mixture. The compounds were preincubated with the enzyme for 30 minutes at 37° C., prior to the addition of a 40 μL volume of Amplex Ultra Red (125 uM AUR; Molecular Probes, Catalog #A36006)/Horseradish peroxidase (2.5 U/ml HRP; Sigma-Aldrich Catalog #P8375) oxidase detection reagent containing cytochrome C (7.5 μM; Sigma-Aldrich Catalog #C7752). Cytochrome C was included in the AUR/HRP detection mixture to reduce the background fluorescence that can occur via the spontaneous redox reaction between AUR and HRP. The SSAO enzyme reaction was then initiated by adding 10 μL of the SSAO substrate, benzylamine (Sigma-Aldrich Catalog #B5136), and SSAO activity was measured in kinetic mode over a 30-120 minute sampling period (excit. 544 nm; emit 590 nm; cut off 570 nm; medium gain) to obtain IC50 values for enzyme activity in each treatment well.

Question: For COC1(CNC(=O)C23CCC(c4ccc(OC/C(=C/F)CN)cc4)(CC2)CC3)CCCCC1 [Compound 2.102, (E)-4-(4-((2-(aminomethyl)-3-fluoroallyl)oxy)phenyl)-N-((1-methoxycyclohexyl)methyl) bicyclo[2.2.2]octane-1-carboxamide], which IC50 is on record?
Answer: ≤ 10 nM

Question: Which IC50 does the source give for CO[C@H]1CC[C@H](NC(=O)C23CC(c4ccc(OC/C(=C/F)CN)cc4)(C2)C3)CC1 [Compound 3.04, 3-(4-(((E)-2-(aminomethyl)-3-fluoroallyl)oxy)phenyl)-N-((1r,4r)-4-methoxycyclohexyl)bicyclo[1.1.1] pentane-1-carboxamide] here?
Answer: ≤ 10 nM

Question: How did the IC50 turn out when COCCO[C@H]1CC[C@H](NC(=O)C23CCC(c4ccc(OC/C(=C/F)CN)cc4)(CC2)CC3)CC1 [Compound 2.142, 4-(4-(((E)-2-(aminomethyl)-3-fluoroallyl)oxy)phenyl)-N-((1r,4r)-4-(2-methoxyethoxy)cyclohexyl)bicyclo [2.2.2]octane-1-carboxamide] was run?
Answer: ≤ 10 nM

Question: CC(C)(C)O[C@H]1C[C@@H](NC(=O)C23CCC(c4ccc(OC/C(=C/F)CN)cc4)(CC2)CC3)C1 [Compound 2.149, 4-(4-(((E)-2-(aminomethyl)-3-fluoroallyl)oxy)phenyl)-N-((1s,3s)-3-(tert-butoxy)cyclobutyl)bicyclo[2.2.2] octane-1-carboxamide] was tested. Which IC50 did it give?
Answer: ≤ 10 nM

Question: For CO[C@H]1CC[C@H](NC(=O)C23CCC(c4ccc(OC/C(=C/F)CN)cc4)(CC2)CC3)CC1 [Compound 2.104, 4-(4-(((E)-2-(aminomethyl)-3-fluoroallyl)oxy)phenyl)-N-((1r,4r)-4-methoxycyclohexyl)bicyclo[2.2.2] octane-1-carboxamide], which IC50 is on record?
Answer: ≤ 10 nM

Question: Which IC50 does the source give for NC/C(=C\F)COc1ccc(C23CCC(C(=O)NC4(C(F)(F)F)CCOCC4)(CC2)CC3)cc1 [Compound 2.152, (E)-4-(4-((2-(aminomethyl)-3-fluoroallyl)oxy)phenyl)-N-(4-(trifluoromethyl)tetrahydro-2H-pyran-4-yl)bicyclo[2.2.2]octane-1-carboxamide] here?
Answer: ≤ 10 nM
